Here are results for three compounds from PubChem BioAssay AID1259407 (Chemical Carcinogenesis Research Information System (CCRIS), 2018).

Activity calls are given as the source filed them. No rule for the calls is given here.

The data set concerns CCRIS mutagenicity, Ames/micronucleus/aberration tests. Put plainly: CCRIS mutagenicity studies.
Setting [1] is: Test System: AMES SALMONELLA TYPHIMURIUM, Strain/Indicator: TA98, Metabolic Activation: NONE, Method: PREINCUBATION
Setting [2] is: Test System: AMES SALMONELLA TYPHIMURIUM, Strain/Indicator: TA100, Metabolic Activation: NONE, Method: PREINCUBATION
[3] abbreviates: Test System: AMES SALMONELLA TYPHIMURIUM, Strain/Indicator: TA100, Metabolic Activation: NONE, Method: STANDARD PLATE.
Where [4] appears, read: Test System: AMES SALMONELLA TYPHIMURIUM, Strain/Indicator: TA1535, Metabolic Activation: NONE, Method: PREINCUBATION
[5] abbreviates: Test System: AMES SALMONELLA TYPHIMURIUM, Strain/Indicator: TA1537, Metabolic Activation: NONE, Method: STANDARD PLATE.

Consider `O=C1c2c(O)cccc2Cc2cccc(O)c21`, for which the mutagenic call was “inactive; negative” (Test System: AMES SALMONELLA TYPHIMURIUM, Strain/Indicator: TA97, Metabolic Activation: HAMSTER, LIVER, S-9, AROCLOR 1254 (10%), Method: PREINCUBATION); “inactive; negative” (Test System: AMES SALMONELLA TYPHIMURIUM, Strain/Indicator: TA97, Metabolic Activation: HAMSTER, LIVER, S-9, AROCLOR 1254 (30%), Method: PREINCUBATION); “inactive; negative” (Test System: AMES SALMONELLA TYPHIMURIUM, Strain/Indicator: TA97, Metabolic Activation: NONE, Method: PREINCUBATION); “inactive; negative” (Test System: AMES SALMONELLA TYPHIMURIUM, Strain/Indicator: TA97, Metabolic Activation: RAT, LIVER, S-9, AROCLOR 1254 (10%), Method: PREINCUBATION); “inactive; negative” (Test System: AMES SALMONELLA TYPHIMURIUM, Strain/Indicator: TA97, Metabolic Activation: RAT, LIVER, S-9, AROCLOR 1254 (30%), Method: PREINCUBATION); “inactive; negative” (Test System: AMES SALMONELLA TYPHIMURIUM, Strain/Indicator: TA98, Metabolic Activation: HAMSTER, LIVER, S-9, AROCLOR 1254 (10%), Method: PREINCUBATION). The mutagenic call is, setting by setting: (Test System: AMES SALMONELLA TYPHIMURIUM, Strain/Indicator: TA98, Metabolic Activation: HAMSTER, LIVER, S-9, AROCLOR 1254 (30%), Method: PREINCUBATION) “inactive; negative”; under setting [1], “inactive; negative”; (Test System: AMES SALMONELLA TYPHIMURIUM, Strain/Indicator: TA98, Metabolic Activation: RAT, LIVER, S-9, AROCLOR 1254 (10%), Method: PREINCUBATION) “inactive; negative”; (Test System: AMES SALMONELLA TYPHIMURIUM, Strain/Indicator: TA98, Metabolic Activation: RAT, LIVER, S-9, AROCLOR 1254 (30%), Method: PREINCUBATION) “inactive; negative”; (Test System: AMES SALMONELLA TYPHIMURIUM, Strain/Indicator: TA100, Metabolic Activation: FISH, LIVER, S-9, 3-METHYLCHOLANTHRENE, Method: STANDARD PLATE) “inactive; negative”; (Test System: AMES SALMONELLA TYPHIMURIUM, Strain/Indicator: TA100, Metabolic Activation: HAMSTER, LIVER, S-9, AROCLOR 1254 (10%), Method: PREINCUBATION) “inactive; negative”. The mutagenic call by setting is: (Test System: AMES SALMONELLA TYPHIMURIUM, Strain/Indicator: TA100, Metabolic Activation: HAMSTER, LIVER, S-9, AROCLOR 1254 (30%), Method: PREINCUBATION) “inactive; negative”; under setting [2], “inactive; negative”; under setting [3], “inactive; negative”; (Test System: AMES SALMONELLA TYPHIMURIUM, Strain/Indicator: TA100, Metabolic Activation: RAT, LIVER, S-9, AROCLOR 1254 (10%), Method: PREINCUBATION) “inactive; negative”; (Test System: AMES SALMONELLA TYPHIMURIUM, Strain/Indicator: TA100, Metabolic Activation: RAT, LIVER, S-9, AROCLOR 1254 (30%), Method: PREINCUBATION) “inactive; negative”; (Test System: AMES SALMONELLA TYPHIMURIUM, Strain/Indicator: TA1535, Metabolic Activation: HAMSTER, LIVER, S-9, AROCLOR 1254 (10%), Method: PREINCUBATION) “inactive; negative”. For the same compound, the mutagenic call is “inactive; negative” (Test System: AMES SALMONELLA TYPHIMURIUM, Strain/Indicator: TA1535, Metabolic Activation: HAMSTER, LIVER, S-9, AROCLOR 1254 (30%), Method: PREINCUBATION); “inactive; negative” under setting [4]; “inactive; negative” (Test System: AMES SALMONELLA TYPHIMURIUM, Strain/Indicator: TA1535, Metabolic Activation: RAT, LIVER, S-9, AROCLOR 1254 (10%), Method: PREINCUBATION); “inactive; negative” (Test System: AMES SALMONELLA TYPHIMURIUM, Strain/Indicator: TA1535, Metabolic Activation: RAT, LIVER, S-9, AROCLOR 1254 (30%), Method: PREINCUBATION); “inactive; negative” under setting [5]; “active; positive” (Test System: AMES SALMONELLA TYPHIMURIUM, Strain/Indicator: TA1537, Metabolic Activation: RAT, LIVER, S-9, PHENOBARBITAL AND BETA-NAPHTHOFLAVONE, Method: STANDARD PLATE). Moreover, the mutagenic call by setting is: (Test System: E. COLI, Strain/Indicator: WP2, Metabolic Activation: NONE, Method: STANDARD PLATE) “inactive; negative”; (Test System: E. COLI, Strain/Indicator: WP2, Metabolic Activation: RAT, LIVER, S-9, AROCLOR 1254, Method: STANDARD PLATE) “inactive; negative”; (Test System: E. COLI, Strain/Indicator: WP2 UVRA, Metabolic Activation: NONE, Method: STANDARD PLATE) “inactive; negative”; (Test System: E. COLI, Strain/Indicator: WP2 UVRA, Metabolic Activation: RAT, LIVER, S-9, AROCLOR 1254, Method: STANDARD PLATE) “inactive; negative”.
In the case of `CC(C)CC(=O)OCc1cocc2c(C=O)ccc1-2`, the mutagenic call reads like this: (Test System: AMES SALMONELLA TYPHIMURIUM, Strain/Indicator: TA98, Metabolic Activation: NONE, Method: STANDARD PLATE) “active; positive”; (Test System: AMES SALMONELLA TYPHIMURIUM, Strain/Indicator: TA98, Metabolic Activation: RAT, LIVER, S-9, AROCLOR 1254, Method: STANDARD PLATE) “active; positive”; under setting [3], “active; positive”; (Test System: AMES SALMONELLA TYPHIMURIUM, Strain/Indicator: TA100, Metabolic Activation: RAT, LIVER, S-9, AROCLOR 1254, Method: STANDARD PLATE) “active; positive”; (Test System: AMES SALMONELLA TYPHIMURIUM, Strain/Indicator: TA1535, Metabolic Activation: NONE, Method: STANDARD PLATE) “inactive; negative”; (Test System: AMES SALMONELLA TYPHIMURIUM, Strain/Indicator: TA1535, Metabolic Activation: RAT, LIVER, S-9, AROCLOR 1254, Method: STANDARD PLATE) “inactive; negative”. Further, the mutagenic call reads like this: under setting [5], “inactive; negative”; (Test System: AMES SALMONELLA TYPHIMURIUM, Strain/Indicator: TA1537, Metabolic Activation: RAT, LIVER, S-9, AROCLOR 1254, Method: STANDARD PLATE) “inactive; negative”.
`O=[N+]([O-])c1cccc(Cl)c1Cl`: the mutagenic call by setting is: (Test System: AMES SALMONELLA TYPHIMURIUM, Strain/Indicator: TA98, Metabolic Activation: HAMSTER, LIVER, S-9, AROCLOR 1254, Method: PREINCUBATION) “inactive; negative”; under setting [1], “inactive; negative”; (Test System: AMES SALMONELLA TYPHIMURIUM, Strain/Indicator: TA98, Metabolic Activation: RAT, LIVER, S-9, AROCLOR 1254, Method: PREINCUBATION) “inactive; negative”; (Test System: AMES SALMONELLA TYPHIMURIUM, Strain/Indicator: TA100, Metabolic Activation: HAMSTER, LIVER, S-9, AROCLOR 1254, Method: PREINCUBATION) “inactive; negative”; under setting [2], “inactive; negative”; under setting [3], “inactive; negative”. In addition, the mutagenic call by setting is: (Test System: AMES SALMONELLA TYPHIMURIUM, Strain/Indicator: TA100, Metabolic Activation: RAT, LIVER, S-9, AROCLOR 1254, Method: PREINCUBATION) “inactive; negative”; (Test System: AMES SALMONELLA TYPHIMURIUM, Strain/Indicator: TA1535, Metabolic Activation: HAMSTER, LIVER, S-9, AROCLOR 1254, Method: PREINCUBATION) “inactive; negative”; under setting [4], “inactive; negative”; (Test System: AMES SALMONELLA TYPHIMURIUM, Strain/Indicator: TA1535, Metabolic Activation: RAT, LIVER, S-9, AROCLOR 1254, Method: PREINCUBATION) “inactive; negative”; (Test System: AMES SALMONELLA TYPHIMURIUM, Strain/Indicator: TA1537, Metabolic Activation: HAMSTER, LIVER, S-9, AROCLOR 1254, Method: PREINCUBATION) “inactive; negative”; (Test System: AMES SALMONELLA TYPHIMURIUM, Strain/Indicator: TA1537, Metabolic Activation: NONE, Method: PREINCUBATION) “inactive; negative”. Besides, under “Test System: AMES SALMONELLA TYPHIMURIUM, Strain/Indicator: TA1537, Metabolic Activation: RAT, LIVER, S-9, AROCLOR 1254, Method: PREINCUBATION”, the mutagenic call is “inactive; negative”.
